{
  "source": "patent US11312676B2",
  "about": "“Small molecule stimulators of steroid receptor coactivator proteins and their use in the treatment of cancer” (BAYLOR COLLEGE OF MEDICINE, priority 2014, dated 2022)",
  "key": {"[1]": {"target": "T1, receptor interacting domain (RID) of SRC-3 (Homo sapiens, UniProt Q9Y6Q9)", "T1 construct": "A total of 1.5 μM of GST SRC-3 RID, CID or bHLH was placed in a fluorescence cuvette; made in house", "T1 sequence (Q9Y6Q9 582-840 limits assumed)": "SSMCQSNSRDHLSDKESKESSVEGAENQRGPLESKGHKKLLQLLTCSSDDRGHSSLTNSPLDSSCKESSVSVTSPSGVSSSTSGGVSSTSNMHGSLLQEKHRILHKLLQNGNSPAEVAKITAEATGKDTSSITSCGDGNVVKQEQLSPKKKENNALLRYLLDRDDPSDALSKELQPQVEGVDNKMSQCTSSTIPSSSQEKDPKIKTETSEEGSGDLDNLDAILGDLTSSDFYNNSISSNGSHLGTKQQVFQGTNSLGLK", "experiment": "Fluorescence spectroscopy, intrinsic fluorescence quenching of GST SRC-3 RID", "type": "binding", "details": "1.5 μM GST SRC-3 RID, excitation 278 nm; read-out: half-affecting concentration of intrinsic fluorescence quenching, SRC-3 RID", "experimental": "Fluorescence spectrometric measurements were performed on a SLM 48000S fluorescence spectrophotometer (SLM-Aminco, Rochester, N.Y.) and an Agilent Cary Eclipse Fluorescence spectrophotometer (Agilent Technologies, Inc., Santa Clara, Calif.) using the GST fusion proteins of different portions of SRC-3 expressed and purified. A total of 1.5 μM of GST SRC-3 RID, CID or bHLH was placed in a fluorescence cuvette and excited by UV light at a wavelength of 278 nm with a 2 nm bandwidth and the emission spectra were recorded from 290 nm to above 500 nm with a bandwidth of 4 nm. The aliquot size of test compound was maintained below 5% of the total sample volume in order to minimize the effects of dilution."}, "[2]": {"test_system": "MMP2 promoter", "experiment": "MMP2-luc reporter with SRC-3 expression vector in HeLa cells", "type": "cell-based", "details": "24 hours", "experimental": "(§1) The constructs expressing the Gal4 responsive luciferase reporter (pG5-luc), Gal4 DBD fusion with SRC-1, […] (pBIND-SRC-1/-2/-3), MMP2 or MMP13 promoter driven luciferase reporter (MMP2-luc, MMP13-luc) were prepared. Twenty-four hours before transfection, HeLa cells were plated in 24-well dishes. The indicated expression plasmids were transfected into cells using Lipofectamine 2000 according to the manufacturer's instructions.\n(§2) After various compound treatments, cells were lysed in luciferase lysis buffer and assayed for luciferase activity using the ONE-Glo luciferase assay system (Promega, Madison, Wis.). All luciferase activities were normalized to protein concentration determined by Bradford assay (Bio-Rad, Hercules, Calif.)."}, "[3]": {"test_system": "MMP13 promoter", "experiment": "MMP13-luc reporter with SRC-3 expression vector in HeLa cells", "type": "cell-based", "details": "24 hours", "experimental": "as §1, §2"}},
  "note": "pEC50: −log10 of the molar value.",
  "data": [
    {"smiles": "CCC1CC(=Cc2cccnc2)C(=O)C(=Cc2cccnc2)C1", "note": "(stereo not drawn) [MCB-613, 4-Ethyl-2,6-bis-pyridin-3-ylmethylene-cyclohexanone]", "values": [
      {"measurement": "pEC50", "setting": "[1]", "result": 5.00},
      {"measurement": "SRC-3's coactivation of the MMP2 promoter", "setting": "[2]", "result": "greatly enhanced"},
      {"measurement": "SRC-3's coactivation of the MMP13 promoter", "setting": "[3]", "result": "greatly enhanced"}
    ]}
  ]
}
